Test results reported in patent US8735414B2 (priority 2009, dated 2014).
pIC50: −log10 of the molar value.

Key:
[1] = system: bicistronic HCV replicon (replicon RNA, GenBank Accession No. AJ242654); assay: HCV Replicon Assay; assay type: cell-based; conditions: Hepatitis C virus, 72 h, read-out: Replicon IC50

Structure (SMILES): Cc1ccc2c(C#N)c(-c3ccc(S(=O)(=O)NC4(C(F)(F)F)CCC4)cn3)n(C3CCCC3)c2c1 [compound 253, 6-(3-cyano-1-cyclopentyl-6-methyl-1H-indol-2-yl)-N-[1-(trifluoromethyl)cyclobutyl]pyridine-3-sulfonamide]
- pIC50 [1]: > 6.30
- melting point: 214 to 218 °C

Structure (SMILES): C[C@H](NS(=O)(=O)c1cnc(-c2c(C#N)c3ccc(Cl)cc3n2C2CCCC2)nc1)C(F)(F)F [compound 417, 2-(6-chloro-3-cyano-1-cyclopentyl-1H-indol-2-yl)-N-[(2S)-1,1,1-trifluoropropan-2-yl]pyrimidine-5-sulfonamide]
- pIC50 [1]: 5.70 to 6.30
- melting point: 220 to 224 °C

Structure (SMILES): N#Cc1c(-c2ccc(S(=O)(=O)NC(CF)CF)cn2)n(C2CCC2)c2cc(OC(F)(F)F)ccc12 [compound 24, 6-[3-cyano-1-cyclobutyl-6-(trifluoromethoxy)-1H-indol-2-yl]-N-(1,3-difluoropropan-2-yl)pyridine-3-sulfonamide]
- pIC50 [1]: > 6.30
- melting point: 158 to 160 °C

Structure (SMILES): Cc1cc2c(cc1Cl)c(C#N)c(-c1ccc(S(=O)(=O)N[C@@H](C)C(F)(F)F)cn1)n2-c1ccccn1 [compound 803, 6-[5-chloro-3-cyano-6-methyl-1-(pyridin-2-yl)-1H-indol-2-yl]-N-[(2S)-1,1,1-trifluoropropan-2-yl]pyridine-3-sulfonamide]
- pIC50 [1]: > 6.30
- melting point: 210 to 212 °C

Structure (SMILES): C[C@H](NS(=O)(=O)c1ccc(-c2c(C#N)c3cc(F)ccc3n2CC2CC2)nc1)C(F)(F)F [compound 436, 6-[3-cyano-1-(cyclopropylmethyl)-5-fluoro-1H-indol-2-yl]-N-[(2S)-1,1,1-trifluoropropan-2-yl]pyridine-3-sulfonamide]
- pIC50 [1]: > 6.30
- melting point: 165 to 167 °C

Structure (SMILES): Cc1ccnc(-n2c(-c3ccc(S(=O)(=O)N[C@@H](C)C(F)(F)F)cn3)c(C(N)=O)c3cc(F)c(C)cc32)n1 [compound 905, 5-fluoro-6-methyl-1-(4-methylpyrimidin-2-yl)-2-(5-{[(2S)-1,1,1-trifluoropropan-2-yl]sulfamoyl}pyridin-2-yl)-1H-indole-3-carboxamide]
- pIC50 [1]: > 6.30
- melting point: 205 to 210 °C

Structure (SMILES): C[C@@H](NS(=O)(=O)c1ccc(-c2c(C#N)c3ccc(F)cc3n2CC2CC2)nc1)C(F)(F)F [compound 216, 6-[3-cyano-1-(cyclopropylmethyl)-6-fluoro-1H-indol-2-yl]-N-[(2R)-1,1,1-trifluoropropan-2-yl]pyridine-3-sulfonamide]
- pIC50 [1]: 5.70 to 6.30
- melting point: 173 to 175 °C

Structure (SMILES): Cc1ccc2c(c1)c(C#N)c(-c1ccc(S(=O)(=O)NC(CF)CF)cn1)n2C1CCCC1 [compound 158, 6-(3-cyano-1-cyclopentyl-5-methyl-1H-indol-2-yl)-N-(1,3-difluoropropan-2-yl)pyridine-3-sulfonamide]
- pIC50 [1]: > 6.30
- melting point: 168 to 173 °C

Structure (SMILES): CCc1cc2c(cc1F)c(C#N)c(-c1ncc(S(=O)(=O)NC(CF)CF)cn1)n2C1CCCC1 [compound 638, 2-(3-cyano-1-cyclopentyl-6-ethyl-5-fluoro-1H-indol-2-yl)-N-(1,3-difluoropropan-2-yl)pyrimidine-5-sulfonamide]
- pIC50 [1]: > 6.30
- melting point: 184 to 185 °C

Structure (SMILES): Cc1ccc2c(C#N)c(-c3ccc(S(=O)(=O)NC4CC(F)(F)C4)cn3)n(C3CCC3)c2c1 [compound 245, 6-(3-cyano-1-cyclobutyl-6-methyl-1H-indol-2-yl)-N-(3,3-difluorocyclobutyl)pyridine-3-sulfonamide]
- pIC50 [1]: > 6.30
- melting point: 165 to 166 °C

Structure (SMILES): N#Cc1c(-c2ccc(S(=O)(=O)NC(CF)CF)cn2)n(-c2ccccn2)c2ccc(F)cc12 [compound 96, 6-[3-cyano-5-fluoro-1-(pyridin-2-yl)-1H-indol-2-yl]-N-(1,3-difluoropropan-2-yl)pyridine-3-sulfonamide]
- pIC50 [1]: > 6.30
- melting point: 170 to 172 °C

Structure (SMILES): CC(C)n1c(-c2ccc(S(=O)(=O)NC(CF)CF)cn2)c(C#N)c2cc(F)ccc21 [compound 60, 6-[3-cyano-5-fluoro-1-(propan-2-yl)-1H-indol-2-yl]-N-(1,3-difluoropropan-2-yl)pyridine-3-sulfonamide]
- pIC50 [1]: > 6.30
- melting point: 168 to 170 °C

Structure (SMILES): Cc1cc2c(cc1Cl)c(C(N)=O)c(-c1ccc(S(=O)(=O)N[C@H](C)C(F)(F)F)cn1)n2C1CCC1 [compound 735, 5-chloro-1-cyclobutyl-6-methyl-2-(5-{[(2R)-1,1,1-trifluoropropan-2-yl]sulfamoyl}pyridin-2-yl)-1H-indole-3-carboxamide]
- pIC50 [1]: > 6.30
- melting point: 208 to 210 °C

Structure (SMILES): N#Cc1c(-c2ccc(S(=O)(=O)NC(CF)CF)cn2)n(C2CC2)c2cc(C3CC3)ccc12 [compound 147, 6-(3-cyano-1,6-dicyclopropyl-1H-indol-2-yl)-N-(1,3-difluoropropan-2-yl)pyridine-3-sulfonamide]
- pIC50 [1]: > 6.30
- melting point: 226 to 228 °C

Structure (SMILES): CCc1cc(F)c2c(C(N)=O)c(-c3ccc(NS(=O)(=O)C(C)(C)C)nc3)n(C3CCC3)c2c1 [compound 1118, 2-{6-[(tert-butylsulfonyl)amino]pyridin-3-yl}-1-cyclobutyl-6-ethyl-4-fluoro-1H-indole-3-carboxamide]
- pIC50 [1]: > 6.30
- melting point: 263 to 268 °C

Structure (SMILES): NC(=O)c1c(-c2ccc(S(=O)(=O)Nc3ccccc3)cn2)n(C2CCC2)c2cc(OC(F)F)c(F)cc12 [compound 798, 1-cyclobutyl-6-(difluoromethoxy)-5-fluoro-2-[5-(phenylsulfamoyl)pyridin-2-yl]-1H-indole-3-carboxamide]
- pIC50 [1]: 5.70 to 6.30
- melting point: 204 to 206 °C

Structure (SMILES): Cc1cc2c(cc1F)c(C#N)c(-c1ccc(S(=O)(=O)NC(C)(C)C)cn1)n2C1CCC1 [compound 651, N-tert-butyl-6-(3-cyano-1-cyclobutyl-5-fluoro-6-methyl-1H-indol-2-yl)pyridine-3-sulfonamide]
- pIC50 [1]: > 6.30
- melting point: 223 to 228 °C

Structure (SMILES): Cc1ccc2c(C#N)c(-c3ccc(S(=O)(=O)NC(CF)CF)cn3)n([C@@H]3CCOC3)c2c1 [compound 54, 6-{3-cyano-6-methyl-1-[(3R)-tetrahydrofuran-3-yl]-1H-indol-2-yl}-N-(1,3-difluoropropan-2-yl)pyridine-3-sulfonamide]
- pIC50 [1]: > 6.30
- melting point: 152 to 153 °C

Structure (SMILES): Cc1cc2c(cc1F)c(C(=O)O)c(-c1ccc(S(=O)(=O)NC(C)(C)C(F)(F)F)cn1)n2C1CCCC1 [compound 765, 1-cyclopentyl-5-fluoro-6-methyl-2-{5-[(1,1,1-trifluoro-2-methylpropan-2-yl)sulfamoyl]pyridin-2-yl}-1H-indole-3-carboxylic acid]
- pIC50 [1]: > 6.30
- melting point: 233 to 234 °C

Structure (SMILES): Cc1cc2c(cc1Cl)c(C(N)=O)c(-c1ncc(S(=O)(=O)N[C@@H](C)C(F)(F)F)cn1)n2C1CCC1 [compound 733, 5-chloro-1-cyclobutyl-6-methyl-2-(5-{[(2S)-1,1,1-trifluoropropan-2-yl]sulfamoyl}pyrimidin-2-yl)-1H-indole-3-carboxamide]
- pIC50 [1]: > 6.30
- melting point: 171 to 173 °C

Structure (SMILES): CCc1cc2c(cc1F)c(C#N)c(-c1ccc(S(=O)(=O)N[C@@H](C)C(F)(F)F)cn1)n2-c1ccc(F)cc1 [compound 1002, 6-[3-cyano-6-ethyl-5-fluoro-1-(4-fluorophenyl)-1H-indol-2-yl]-N-[(2S)-1,1,1-trifluoropropan-2-yl]pyridine-3-sulfonamide]
- pIC50 [1]: > 6.30
- melting point: 236 to 243 °C

Structure (SMILES): Cc1cc2c(cc1F)c(C#N)c(-c1ccc(S(=O)(=O)N[C@@H](C)C(F)(F)F)cn1)n2-c1cccnn1 [compound 892, 6-[3-cyano-5-fluoro-6-methyl-1-(pyridazin-3-yl)-1H-indol-2-yl]-N-[(2S)-1,1,1-trifluoropropan-2-yl]pyridine-3-sulfonamide]
- pIC50 [1]: > 6.30
- melting point: 245 to 250 °C

Structure (SMILES): C[C@H](NS(=O)(=O)c1cnc(-c2c(C#N)c3cc(C#N)ccc3n2C2CCCC2)nc1)C1CC1 [compound 367, N-[(1S)-1-cyclopropylethyl]-2-(3,5-dicyano-1-cyclopentyl-1H-indol-2-yl)pyrimidine-5-sulfonamide]
- pIC50 [1]: 5.70 to 6.30
- melting point: 218 to 223 °C

Structure (SMILES): Cc1cc2c(cc1Cl)c(C#N)c(-c1ccc(S(=O)(=O)N[C@@H](C)C(F)(F)F)cn1)n2-c1ncccn1 [compound 785, 6-[5-chloro-3-cyano-6-methyl-1-(pyrimidin-2-yl)-1H-indol-2-yl]-N-[(2S)-1,1,1-trifluoropropan-2-yl]pyridine-3-sulfonamide]
- pIC50 [1]: > 6.30
- melting point: 210 to 212 °C

Structure (SMILES): C[C@H](NS(=O)(=O)c1ccc(-c2c(C#N)c3cc(Br)c(O)cc3n2C2CCC2)nc1)C(F)(F)F [compound 684, 6-(5-bromo-3-cyano-1-cyclobutyl-6-hydroxy-1H-indol-2-yl)-N-[(2S)-1,1,1-trifluoropropan-2-yl]pyridine-3-sulfonamide]
- pIC50 [1]: 5.70 to 6.30
- melting point: 223 to 224 °C

Structure (SMILES): CCn1c(-c2ccc(N(CC#N)S(=O)(=O)C3CC3)nc2)c(C#N)c2ccc(OC(C)C)cc21 [compound 294, N-{5-[3-cyano-1-ethyl-6-(propan-2-yloxy)-1H-indol-2-yl]pyridin-2-yl}-N-(cyanomethyl)cyclopropanesulfonamide]
- pIC50 [1]: 5.70 to 6.30
- melting point: 236 to 238 °C

Structure (SMILES): CC(C)(C)NS(=O)(=O)c1ccc(-c2c(C#N)c3ccc(OC(F)F)cc3n2-c2ccccc2)nc1 [compound 624, N-tert-butyl-6-[3-cyano-6-(difluoromethoxy)-1-phenyl-1H-indol-2-yl]pyridine-3-sulfonamide]
- pIC50 [1]: > 6.30
- melting point: 216 to 218 °C

Structure (SMILES): N#Cc1c(-c2ccc(S(=O)(=O)NC(CF)CF)cn2)n(C2CCCC2)c2cc(C3CC3)ccc12 [compound 85, 6-(3-cyano-1-cyclopentyl-6-cyclopropyl-1H-indol-2-yl)-N-(1,3-difluoropropan-2-yl)pyridine-3-sulfonamide]
- pIC50 [1]: > 6.30
- melting point: 194 to 200 °C

Structure (SMILES): C[C@H](NS(=O)(=O)c1cnc(-c2c(C#N)c3ccc(C4CC4)cc3n2C2CCC2)nc1)C(F)(F)F [compound 324, 2-(3-cyano-1-cyclobutyl-6-cyclopropyl-1H-indol-2-yl)-N-[(2S)-1,1,1-trifluoropropan-2-yl]pyrimidine-5-sulfonamide]
- pIC50 [1]: > 6.30
- melting point: 214 to 215 °C
